In ChEMBL document CHEMBL1275550, “In vitro activity of doripenem, a carbapenem for the treatment of challenging infections caused by gram-negative bacteria, against recent clinical isolates from the United States” (2008):
≈ marks a conversion by molar mass, not a printed value.

Columns and labels:
Streptococcus pneumoniae [1] = test: Antimicrobial activity against penicillin-intermediate Streptococcus pneumoniae assessed as intermediate isolate by broth microdilution method; format: functional
Enterobacteriaceae [2] = test: Antimicrobial activity against Ceftazidime non-susceptible Enterobacteriaceae by broth microdilution method; format: functional
Enterobacteriaceae [3] = test: Antimicrobial activity against Enterobacteriaceae assessed as intermediate isolate by broth microdilution method; format: functional
Enterobacteriaceae [4] = test: Antimicrobial activity against Enterobacteriaceae assessed as resistant isolate by broth microdilution method; format: functional
Enterobacteriaceae [5] = test: Antimicrobial activity against Ceftazidime non-susceptible Enterobacteriaceae assessed as susceptible isolate by broth microdilution method; format: functional
Enterobacteriaceae [6] = test: Antimicrobial activity against Ceftazidime non-susceptible Enterobacteriaceae assessed as resistant isolate by broth microdilution method; format: functional
Escherichia coli [7] = test: Antimicrobial activity against Escherichia coli by broth microdilution method; format: functional
Escherichia coli [8] = test: Antimicrobial activity against ESBL producing Escherichia coli by broth microdilution method; format: functional
Escherichia coli [9] = test: Antimicrobial activity against Escherichia coli assessed as susceptible isolate by broth microdilution method; format: functional
Escherichia coli [10] = test: Antimicrobial activity against ESBL producing Escherichia coli assessed as susceptible isolate by broth microdilution method; format: functional
Escherichia coli [11] = test: Antimicrobial activity against ESBL producing Escherichia coli assessed as intermediate isolate by broth microdilution method; format: functional
Klebsiella pneumoniae [12] = test: Antimicrobial activity against Klebsiella pneumoniae by broth microdilution method; format: functional
Klebsiella pneumoniae [13] = test: Antimicrobial activity against Non-ESBL Klebsiella pneumoniae by broth microdilution method; format: functional
Klebsiella pneumoniae [14] = test: Antimicrobial activity against Non-ESBL Klebsiella pneumoniae assessed as intermediate isolate by broth microdilution method; format: functional
Klebsiella pneumoniae [15] = test: Antimicrobial activity against ESBL producing Klebsiella pneumoniae assessed as susceptible isolate by broth microdilution method; format: functional
Proteus mirabilis [16] = test: Antimicrobial activity against Proteus mirabilis by broth microdilution method; format: functional
Proteus mirabilis [17] = test: Antimicrobial activity against Proteus mirabilis assessed as susceptible isolate by broth microdilution method; format: functional
Proteus mirabilis [18] = test: Antimicrobial activity against Proteus mirabilis assessed as intermediate isolate by broth microdilution method; format: functional
Pseudomonas aeruginosa [19] = test: Antimicrobial activity against Pseudomonas aeruginosa isolated from ICU patient by broth microdilution method; format: functional
Proteus mirabilis [20] = test: Antimicrobial activity against Non-ESBL Proteus mirabilis assessed as susceptible isolate by broth microdilution method; format: functional
Proteus mirabilis [21] = test: Antimicrobial activity against ESBL producing Proteus mirabilis assessed as susceptible isolate by broth microdilution method; format: functional
Enterobacter cloacae [22] = test: Antimicrobial activity against Enterobacter cloacae by broth microdilution method; format: functional
Enterobacter cloacae [23] = test: Antimicrobial activity against Enterobacter cloacae with nonderepressed AmpC beta-lactamsae by broth microdilution method; format: functional
Enterobacter cloacae [24] = test: Antimicrobial activity against Enterobacter cloacae with nonderepressed AmpC beta-lactamsae assessed as susceptible isolate by broth microdilution method; format: functional
Enterobacter cloacae [25] = test: Antimicrobial activity against Enterobacter cloacae with derepressed AmpC beta-lactamsae assessed as susceptible isolate by broth microdilution method; format: functional
Citrobacter [26] = test: Antimicrobial activity against Citrobacter with nonderepressed AmpC beta-lactamsae by broth microdilution method; format: functional
Citrobacter [27] = test: Antimicrobial activity against Citrobacter assessed as susceptible isolate by broth microdilution method; format: functional
Citrobacter [28] = test: Antimicrobial activity against Citrobacter with nonderepressed AmpC beta-lactamsae assessed as susceptible isolate by broth microdilution method; format: functional
Citrobacter [29] = test: Antimicrobial activity against Citrobacter with derepressed AmpC beta-lactamsae assessed as intermediate isolate by broth microdilution method; format: functional
Serratia marcescens [30] = test: Antimicrobial activity against Serratia marcescens by broth microdilution method; format: functional
Serratia marcescens [31] = test: Antimicrobial activity against Ceftazidime susceptible Serratia marcescens by broth microdilution method; format: functional
Serratia marcescens [32] = test: Antimicrobial activity against Ceftazidime non-susceptible Serratia marcescens by broth microdilution method; format: functional
Serratia marcescens [33] = test: Antimicrobial activity against Serratia marcescens assessed as resistant isolate by broth microdilution method; format: functional
Pseudomonas aeruginosa [34] = test: Antimicrobial activity against Pseudomonas aeruginosa by broth microdilution method; format: functional
Pseudomonas aeruginosa [35] = test: Antimicrobial activity against Ceftazidime non-susceptible Pseudomonas aeruginosa by broth microdilution method; format: functional
Pseudomonas aeruginosa [36] = test: Antimicrobial activity against imipenem susceptible Pseudomonas aeruginosa by broth microdilution method; format: functional
Pseudomonas aeruginosa [37] = test: Antimicrobial activity against imipenem non-susceptible Pseudomonas aeruginosa by broth microdilution method; format: functional
Pseudomonas aeruginosa [38] = test: Antimicrobial activity against Pseudomonas aeruginosa assessed as intermediate isolate by broth microdilution method; format: functional
Pseudomonas aeruginosa [39] = test: Antimicrobial activity against Ceftazidime susceptible Pseudomonas aeruginosa assessed as susceptible isolate by broth microdilution method; format: functional
Pseudomonas aeruginosa [40] = test: Antimicrobial activity against Ceftazidime susceptible Pseudomonas aeruginosa assessed as intermediate isolate by broth microdilution method; format: functional
Pseudomonas aeruginosa [41] = test: Antimicrobial activity against imipenem non-susceptible Pseudomonas aeruginosa assessed as susceptible isolate by broth microdilution method; format: functional
Acinetobacter [42] = test: Antimicrobial activity against imipenem non-susceptible Acinetobacter by broth microdilution method; format: functional
Acinetobacter [43] = test: Antimicrobial activity against Acinetobacter assessed as susceptible isolate by broth microdilution method; format: functional
Acinetobacter [44] = test: Antimicrobial activity against imipenem susceptible Acinetobacter assessed as susceptible isolate by broth microdilution method; format: functional
Acinetobacter [45] = test: Antimicrobial activity against imipenem susceptible Acinetobacter assessed as resistant isolate by broth microdilution method; format: functional
Acinetobacter [46] = test: Antimicrobial activity against imipenem non-susceptible Acinetobacter assessed as intermediate isolate by broth microdilution method; format: functional
Staphylococcus aureus [47] = test: Antimicrobial activity against methicillin-susceptible Staphylococcus aureus by broth microdilution method; format: functional
Staphylococcus aureus [48] = test: Antimicrobial activity against methicillin-susceptible Staphylococcus aureus assessed as susceptible isolate by broth microdilution method; format: functional
Streptococcus pneumoniae [49] = test: Antimicrobial activity against penicillin-resistant Streptococcus pneumoniae by broth microdilution method; format: functional
Streptococcus pneumoniae [50] = test: Antimicrobial activity against […] assessed as susceptible isolate by broth microdilution method; format: functional
Pseudomonas aeruginosa [51] = test: Antimicrobial activity against Pseudomonas aeruginosa isolated from patient by broth microdilution method
Pseudomonas aeruginosa [52] = test: Antimicrobial activity against Pseudomonas aeruginosa isolated from non-ICU patient by broth microdilution method

## C[C@@H](O)[C@H]1C(=O)N2C(C(=O)O)=C(S[C@@H]3CN[C@H](C(=O)N(C)C)C3)[C@H](C)[C@H]12 [MEROPENEM]
Streptococcus pneumoniae [1]
  Activity: 83.9%
Enterobacteriaceae [2]
  MIC50: 0.12 µg/mL (≈ 0.313 µM)
  MIC90: 0.5 µg/mL (≈ 1.3 µM)
Enterobacteriaceae [3]
  Activity: 0%
Enterobacteriaceae [4]
  Activity: 0.1%
Enterobacteriaceae [5]
  Activity: 98%
Enterobacteriaceae [6]
  Activity: 1.3%
Escherichia coli [7]
  MIC50: 0.03 µg/mL (≈ 0.0782 µM)
  MIC90: 0.06 µg/mL (≈ 0.156 µM)
Escherichia coli [8]
  MIC50: 0.06 µg/mL (≈ 0.156 µM)
  MIC90: 0.06 µg/mL (≈ 0.156 µM)
Escherichia coli [9]
  Activity: 100%
Escherichia coli [10]
  Activity: 100%
Escherichia coli [11]
  Activity: 0%
Klebsiella pneumoniae [12]
  MIC50: 0.06 µg/mL (≈ 0.156 µM)
  MIC90: 0.06 µg/mL (≈ 0.156 µM)
Klebsiella pneumoniae [13]
  MIC50: 0.06 µg/mL (≈ 0.156 µM)
  MIC90: 0.06 µg/mL (≈ 0.156 µM)
Klebsiella pneumoniae [14]
  Activity: 0%
Klebsiella pneumoniae [15]
  Activity: 95.5%
Proteus mirabilis [16]
  MIC50: 0.12 µg/mL (≈ 0.313 µM)
  MIC90: 0.25 µg/mL (≈ 0.652 µM)
Proteus mirabilis [17]
  Activity: 100%
Proteus mirabilis [18]
  Activity: 0%
Pseudomonas aeruginosa [19]
  MIC50: 1 µg/mL (≈ 2.61 µM)
  MIC90: 32 µg/mL (≈ 83.4 µM)
Proteus mirabilis [20]
  Activity: 100%
Proteus mirabilis [21]
  Activity: 100%
Enterobacter cloacae [22]
  MIC50: 0.06 µg/mL (≈ 0.156 µM)
  MIC90: 0.25 µg/mL (≈ 0.652 µM)
Enterobacter cloacae [23]
  MIC50: 0.06 µg/mL (≈ 0.156 µM)
  MIC90: 0.12 µg/mL (≈ 0.313 µM)
Enterobacter cloacae [24]
  Activity: 99.5%
Enterobacter cloacae [25]
  Activity: 100%
Citrobacter [26]
  MIC50: 0.06 µg/mL (≈ 0.156 µM)
  MIC90: 0.06 µg/mL (≈ 0.156 µM)
Citrobacter [27]
  Activity: 100%
Citrobacter [28]
  Activity: 100%
Citrobacter [29]
  Activity: 0%
Serratia marcescens [30]
  MIC50: 0.12 µg/mL (≈ 0.313 µM)
  MIC90: 0.25 µg/mL (≈ 0.652 µM)
Serratia marcescens [31]
  MIC50: 0.12 µg/mL (≈ 0.313 µM)
  MIC90: 0.25 µg/mL (≈ 0.652 µM)
Serratia marcescens [32]
  MIC50: 0.25 µg/mL (≈ 0.652 µM)
  MIC90: 0.25 µg/mL (≈ 0.652 µM)
Serratia marcescens [33]
  Activity: 0.8%
Pseudomonas aeruginosa [34]
  MIC50: 1 µg/mL (≈ 2.61 µM)
  MIC90: 16 µg/mL (≈ 41.7 µM)
Pseudomonas aeruginosa [35]
  MIC50: 4 µg/mL (≈ 10.4 µM)
  MIC90: 32 µg/mL (≈ 83.4 µM)
Pseudomonas aeruginosa [36]
  MIC50: 0.5 µg/mL (≈ 1.3 µM)
  MIC90: 2 µg/mL (≈ 5.22 µM)
Pseudomonas aeruginosa [37]
  MIC50: 8 µg/mL (≈ 20.9 µM)
  MIC90: 32 µg/mL (≈ 83.4 µM)
Pseudomonas aeruginosa [38]
  Activity: 4.6%
Pseudomonas aeruginosa [39]
  Activity: 88.8%
Pseudomonas aeruginosa [40]
  Activity: 4.7%
Pseudomonas aeruginosa [41]
  Activity: 42.5%
Acinetobacter [42]
  MIC50: > 32 µg/mL
  MIC90: > 32 µg/mL
Acinetobacter [43]
  Activity: 80.6%
Acinetobacter [44]
  Activity: 97.9%
Acinetobacter [45]
  Activity: 0.4%
Acinetobacter [46]
  Activity: 0%
Staphylococcus aureus [47]
  MIC50: 0.12 µg/mL (≈ 0.313 µM)
Staphylococcus aureus [47]; Staphylococcus aureus, read-out: MIC50
  MIC50: 0.06 µg/mL (≈ 0.156 µM)
Staphylococcus aureus [48]
  Activity: 100%
Streptococcus pneumoniae [49]
  MIC50: 1 µg/mL (≈ 2.61 µM)
Streptococcus pneumoniae [49]; Streptococcus pneumoniae, read-out: MIC50
  MIC50: 1 µg/mL (≈ 2.61 µM)
Streptococcus pneumoniae [50]
  Activity: 100%
Pseudomonas aeruginosa [51]
  Activity: 3.7%
Pseudomonas aeruginosa [52]
  Activity: 83.9%
